Measurements taken from ChEMBL document CHEMBL1138045 (J Med Chem, 2006).
pIC50, pKi: −log10 of the molar value. Values belong to the compound of their own block, whether it stands above or below them.

Legend:
[1] = biological target: Mitogen-activated protein kinase 8 (Homo sapiens, UniProt P45983); test: Inhibition of JNK1
[2] = biological target: Mitogen-activated protein kinase 9 (Homo sapiens, UniProt P45984); test: Inhibition of JNK2
[3] = Oral bioavailability in rat at 5 mg/kg, po; assay type: ADME, organism-based; conditions: in vivo
[4] = Half life in mouse microsomes; assay type: ADME, Microsome
[5] = Half life in rat at 5 mg/kg, po; assay type: ADME, organism-based; design: dose 5 mg/kg, route oral; conditions: in vivo
[6] = Cmax in rat at 5 mg/kg, po; assay type: ADME, organism-based; design: dose 5 mg/kg, route oral; conditions: in vivo
[7] = AUC in rat at 5 mg/kg, po; assay type: ADME, organism-based; design: dose 5 mg/kg, route oral; conditions: plasma
[8] = biological target: c-Jun N-terminal kinase, JNK (Homo sapiens, UniProt P45983+P53779+P45984); test: Inhibition of cJun phosphorylation in HepG2 cells; assay type: functional, cell-based
[9] = biological target: Mitogen-activated protein kinase 10 (Homo sapiens, UniProt P53779); test: Inhibition of JNK3
[10] = Half life in rat microsomes; assay type: ADME, Microsome; conditions: liver microsomes
[11] = Inhibition of MAPKAPK; design: species or system Homo sapiens
[12] = biological target: T1, Serine/threonine-protein kinase Sgk1 (Homo sapiens, UniProt O00141); test: Inhibition of SGk
T1 sequence (O00141 whole entry): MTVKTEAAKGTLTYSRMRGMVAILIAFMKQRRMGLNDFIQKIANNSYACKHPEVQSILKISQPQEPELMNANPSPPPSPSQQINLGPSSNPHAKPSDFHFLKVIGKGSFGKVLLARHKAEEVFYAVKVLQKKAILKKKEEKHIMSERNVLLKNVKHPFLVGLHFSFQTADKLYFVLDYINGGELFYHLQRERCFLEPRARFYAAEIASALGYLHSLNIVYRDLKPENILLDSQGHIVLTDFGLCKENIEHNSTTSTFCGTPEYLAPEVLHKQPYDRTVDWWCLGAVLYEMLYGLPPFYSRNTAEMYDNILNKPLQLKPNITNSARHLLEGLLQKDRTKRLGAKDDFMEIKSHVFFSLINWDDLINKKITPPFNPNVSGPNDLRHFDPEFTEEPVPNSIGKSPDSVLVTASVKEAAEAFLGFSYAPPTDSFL

[13] = biological target: T2, Calcium/calmodulin-dependent protein kinase type IV (Homo sapiens, UniProt Q16566); test: Inhibition of CaMK4
T2 sequence (Q16566 whole entry): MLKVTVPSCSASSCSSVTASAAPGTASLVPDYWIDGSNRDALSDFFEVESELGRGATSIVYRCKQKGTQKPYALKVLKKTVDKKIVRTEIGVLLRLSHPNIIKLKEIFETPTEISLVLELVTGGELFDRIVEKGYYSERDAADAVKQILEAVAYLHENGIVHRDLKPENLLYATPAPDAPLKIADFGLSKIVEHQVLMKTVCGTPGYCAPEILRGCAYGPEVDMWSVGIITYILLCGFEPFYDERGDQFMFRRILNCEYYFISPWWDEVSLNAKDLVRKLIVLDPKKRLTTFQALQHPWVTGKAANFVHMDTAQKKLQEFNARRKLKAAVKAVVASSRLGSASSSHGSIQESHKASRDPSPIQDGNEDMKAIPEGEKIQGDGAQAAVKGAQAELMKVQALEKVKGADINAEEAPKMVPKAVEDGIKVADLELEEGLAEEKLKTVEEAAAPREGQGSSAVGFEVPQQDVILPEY

[14] = biological target: Activated CDC42 kinase 1 (Homo sapiens, UniProt Q07912); test: Inhibition of CDC42
[15] = Inhibition of IGFR; design: species or system Homo sapiens
[16] = Half life in human microsomes; assay type: ADME, Microsome; conditions: liver microsomes
[17] = biological target: Voltage-gated inwardly rectifying potassium channel KCNH2 (Homo sapiens, UniProt Q12809); test: Displacement of [3H]dofetilide from hERG
Sequence of Voltage-gated inwardly rectifying potassium channel KCNH2 (Q12809 whole entry): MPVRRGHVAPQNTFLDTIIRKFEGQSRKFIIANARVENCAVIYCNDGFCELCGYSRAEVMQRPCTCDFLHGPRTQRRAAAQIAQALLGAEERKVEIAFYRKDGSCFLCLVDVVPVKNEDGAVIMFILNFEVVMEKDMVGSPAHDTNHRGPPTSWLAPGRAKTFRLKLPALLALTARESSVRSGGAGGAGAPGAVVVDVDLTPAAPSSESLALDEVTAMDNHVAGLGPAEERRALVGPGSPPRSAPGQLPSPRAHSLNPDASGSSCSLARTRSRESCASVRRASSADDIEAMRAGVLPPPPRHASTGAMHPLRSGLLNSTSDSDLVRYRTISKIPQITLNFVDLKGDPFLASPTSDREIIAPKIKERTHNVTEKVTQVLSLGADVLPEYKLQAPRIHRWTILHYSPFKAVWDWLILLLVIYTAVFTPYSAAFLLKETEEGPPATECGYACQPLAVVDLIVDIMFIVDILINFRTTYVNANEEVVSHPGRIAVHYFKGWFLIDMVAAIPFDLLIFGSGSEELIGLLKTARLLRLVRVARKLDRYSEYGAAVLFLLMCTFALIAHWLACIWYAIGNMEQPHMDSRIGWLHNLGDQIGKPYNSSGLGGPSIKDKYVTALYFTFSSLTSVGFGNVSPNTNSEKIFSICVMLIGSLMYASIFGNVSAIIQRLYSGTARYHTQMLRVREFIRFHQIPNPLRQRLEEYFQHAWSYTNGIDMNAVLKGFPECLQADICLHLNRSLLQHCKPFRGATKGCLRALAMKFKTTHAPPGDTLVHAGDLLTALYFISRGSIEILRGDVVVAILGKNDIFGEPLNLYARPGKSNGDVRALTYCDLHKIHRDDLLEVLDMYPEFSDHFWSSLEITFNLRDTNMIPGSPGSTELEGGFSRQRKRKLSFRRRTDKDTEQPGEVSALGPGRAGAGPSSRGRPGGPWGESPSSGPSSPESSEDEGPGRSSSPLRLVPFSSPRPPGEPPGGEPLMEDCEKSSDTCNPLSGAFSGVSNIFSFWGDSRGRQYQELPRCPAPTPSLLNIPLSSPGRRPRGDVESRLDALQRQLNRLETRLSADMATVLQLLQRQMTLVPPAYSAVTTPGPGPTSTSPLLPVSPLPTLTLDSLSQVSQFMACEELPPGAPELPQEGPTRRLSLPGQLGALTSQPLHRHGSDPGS

Sequence of Mitogen-activated protein kinase 9 (P45984 whole entry): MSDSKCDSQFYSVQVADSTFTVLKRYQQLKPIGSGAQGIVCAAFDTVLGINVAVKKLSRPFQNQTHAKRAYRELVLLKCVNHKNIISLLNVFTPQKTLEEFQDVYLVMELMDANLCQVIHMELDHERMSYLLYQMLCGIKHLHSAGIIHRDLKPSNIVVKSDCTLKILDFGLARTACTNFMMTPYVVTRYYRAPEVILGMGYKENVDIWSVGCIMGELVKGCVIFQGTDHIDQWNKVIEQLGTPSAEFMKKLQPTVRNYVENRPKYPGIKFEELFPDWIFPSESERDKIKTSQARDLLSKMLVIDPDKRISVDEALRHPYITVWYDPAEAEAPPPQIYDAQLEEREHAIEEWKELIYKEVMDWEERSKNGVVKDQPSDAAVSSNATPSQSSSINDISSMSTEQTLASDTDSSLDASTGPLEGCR
Sequence of Mitogen-activated protein kinase 8 (P45983 whole entry): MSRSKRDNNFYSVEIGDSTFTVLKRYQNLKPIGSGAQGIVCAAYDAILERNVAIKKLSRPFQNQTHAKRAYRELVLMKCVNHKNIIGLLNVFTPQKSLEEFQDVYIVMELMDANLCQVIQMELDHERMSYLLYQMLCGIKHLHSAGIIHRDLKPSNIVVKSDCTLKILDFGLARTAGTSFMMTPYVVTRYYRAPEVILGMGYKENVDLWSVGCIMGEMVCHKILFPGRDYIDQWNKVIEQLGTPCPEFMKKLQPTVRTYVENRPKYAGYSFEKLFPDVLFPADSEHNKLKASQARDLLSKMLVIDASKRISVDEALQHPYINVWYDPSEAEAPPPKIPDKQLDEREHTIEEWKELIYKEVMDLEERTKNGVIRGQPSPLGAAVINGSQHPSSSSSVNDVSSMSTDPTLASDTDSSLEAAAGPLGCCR
Sequence of Mitogen-activated protein kinase 10 (P53779 whole entry): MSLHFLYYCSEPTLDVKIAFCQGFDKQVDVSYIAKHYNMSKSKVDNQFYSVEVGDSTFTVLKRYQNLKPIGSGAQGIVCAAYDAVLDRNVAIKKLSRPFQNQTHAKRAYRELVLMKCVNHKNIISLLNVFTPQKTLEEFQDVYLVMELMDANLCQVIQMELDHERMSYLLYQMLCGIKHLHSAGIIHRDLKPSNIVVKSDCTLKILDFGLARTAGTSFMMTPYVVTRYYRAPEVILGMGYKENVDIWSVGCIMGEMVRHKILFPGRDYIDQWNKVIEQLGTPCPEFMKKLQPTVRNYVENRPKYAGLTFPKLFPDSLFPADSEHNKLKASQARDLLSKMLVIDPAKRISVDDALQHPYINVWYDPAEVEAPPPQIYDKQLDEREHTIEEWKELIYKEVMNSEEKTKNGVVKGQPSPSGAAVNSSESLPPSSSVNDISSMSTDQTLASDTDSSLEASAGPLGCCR
Sequence of Activated CDC42 kinase 1 (Q07912 whole entry): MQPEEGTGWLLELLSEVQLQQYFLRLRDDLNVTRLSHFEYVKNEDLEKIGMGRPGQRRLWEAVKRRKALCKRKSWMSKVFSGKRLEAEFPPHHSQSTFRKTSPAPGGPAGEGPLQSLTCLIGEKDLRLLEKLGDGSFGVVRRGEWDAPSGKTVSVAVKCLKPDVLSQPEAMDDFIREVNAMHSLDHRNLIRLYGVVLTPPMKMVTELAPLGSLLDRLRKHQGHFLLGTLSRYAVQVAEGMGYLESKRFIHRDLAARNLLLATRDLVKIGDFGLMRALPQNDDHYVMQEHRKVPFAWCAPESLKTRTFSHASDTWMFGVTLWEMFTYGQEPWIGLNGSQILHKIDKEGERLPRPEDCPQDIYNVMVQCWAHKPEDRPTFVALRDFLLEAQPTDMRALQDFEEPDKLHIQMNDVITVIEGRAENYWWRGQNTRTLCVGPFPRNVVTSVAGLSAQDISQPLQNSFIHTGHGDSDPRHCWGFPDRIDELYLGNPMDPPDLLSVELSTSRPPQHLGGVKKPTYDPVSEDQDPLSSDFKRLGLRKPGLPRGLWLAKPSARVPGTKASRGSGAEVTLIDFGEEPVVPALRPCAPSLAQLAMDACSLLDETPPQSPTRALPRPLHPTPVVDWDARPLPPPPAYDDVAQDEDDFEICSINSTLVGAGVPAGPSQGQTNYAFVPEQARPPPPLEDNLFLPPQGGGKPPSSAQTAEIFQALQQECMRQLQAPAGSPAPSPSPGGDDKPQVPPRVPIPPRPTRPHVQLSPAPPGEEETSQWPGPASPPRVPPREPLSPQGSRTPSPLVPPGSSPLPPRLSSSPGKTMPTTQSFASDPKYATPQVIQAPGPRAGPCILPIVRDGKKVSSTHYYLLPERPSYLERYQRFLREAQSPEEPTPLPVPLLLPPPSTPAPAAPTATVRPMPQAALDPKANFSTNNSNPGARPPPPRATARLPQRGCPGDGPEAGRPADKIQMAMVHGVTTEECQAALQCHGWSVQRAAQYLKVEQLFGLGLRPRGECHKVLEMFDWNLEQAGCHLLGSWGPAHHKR

pIC50 [1]: < 5.00
SMILES: CCOc1nc(NCc2cc(OC)ccc2OC)cc(N)c1C#N

pIC50 [1]: 5.82 | pIC50 [2]: 5.36
SMILES: CS(=O)(=O)c1ccc(CNC(=O)c2cc(N)c(C#N)c(Cl)n2)cc1

bioavailability [3]: 32.7% | half-life [4]: 0.0833 h | half-life [5]: 0.5 h | Cmax [6]: 2920 ng/mL | AUC [7]: 3800 ng·h/mL
SMILES: CCOc1nc(C(=O)NCc2cccnc2)cc(N)c1C#N

pIC50 [1]: 6.64 | IC50 [8]: 2500 nM
SMILES: CCOc1nc(C(=O)NCc2cc(OC)ccc2OC)ccc1C#N

pIC50 [1]: 6.57 | pIC50 [2]: 6.72 | IC50 [8]: 1100 nM
SMILES: CCOc1nc(C(=O)NCc2ccccc2)cc(N)c1C#N

pIC50 [1]: 8.40 | pIC50 [2]: 7.96 | IC50 [8]: > 10000 nM
SMILES: CCOc1nc(C(=O)NCc2ccc(-c3ccc(C(=O)O)cc3)nc2)cc(N)c1C#N

pIC50 [1]: 5.92 | pKi [1]: 6.40 | pIC50 [2]: 6.21
SMILES: CCOc1nc(C(=O)NC)cc(N)c1C#N

pIC50 [1]: 7.15 | pIC50 [2]: 6.92 | IC50 [8]: 640 nM
SMILES: CCOc1nc(C(=O)NCc2cc(OC)ccc2OC)cc(N)c1C#N

bioavailability [3]: 124% | pIC50 [9]: 6.92 | half-life [10]: > 1 h | half-life [5]: 5.1 h | Cmax [6]: 1780 ng/mL | AUC [7]: 15400 ng·h/mL | pKi [11]: < 5.08 | pKi [12]: < 5.03 | pKi [13]: < 5.07 | pKi [14]: < 5.02 | pKi [15]: < 6.00
SMILES: CCOc1nc(C(=O)NCc2ccc(S(C)(=O)=O)cc2)cc(N)c1Cl

bioavailability [3]: 54.7% | pIC50 [1]: 7.92 | half-life [10]: > 1 h | half-life [5]: 2.2 h | Cmax [6]: 1320 ng/mL | AUC [7]: 4000 ng·h/mL
SMILES: CCOc1nc(C(=O)NCc2ccccc2S(N)(=O)=O)cc(N)c1C#N

pIC50 [1]: 6.41 | IC50 [8]: 5800 nM
SMILES: CCOc1nc(C(=O)NCc2ccc(S(C)(=O)=O)cc2)ccc1C#N

pIC50 [1]: 5.19 | pIC50 [2]: < 5.00 | IC50 [8]: > 10000 nM
SMILES: CCOc1nc(C(=O)N(C)Cc2ccc(S(C)(=O)=O)cc2)cc(N)c1C#N

bioavailability [3]: 38.8% | half-life [10]: > 1 h | half-life [4]: > 1 h | half-life [16]: > 1 h | half-life [5]: 3.4 h | Cmax [6]: 1020 ng/mL | AUC [7]: 6320 ng·h/mL
SMILES: CCOc1nc(C(=O)NCc2ccc(S(C)(=O)=O)cc2)cc(N)c1C#N
pIC50 [17]: < 4.00

pIC50 [1]: 7.12 | pIC50 [2]: 7.17 | IC50 [8]: 410 nM
SMILES: CC(C)Oc1nc(C(=O)NCc2ccc(S(C)(=O)=O)cc2)cc(N)c1Cl
